According to ChEMBL document CHEMBL1201862, “PubChem BioAssay data set” (2004):
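Interpolation was linear, between the two tested concentrations surrounding the appropriate level; five concentrations were tested over 48 hours in 96-well plates. The concentration for 50% growth inhibition is given as GI50.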 Activity calls are given as the source filed them. Rule as the data show it: active = GI50 up to about 1.1 µM and inactive = higher.

What was measured:
Assay in all cases: NCI-60 cell line screen, 48 h
[1] = tested on: MCF7
[2] = tested on: HCC 2998
[3] = tested on: TK-10
[4] = tested on: M14
[5] = tested on: HOP-62
[6] = tested on: RPMI-8226
[7] = tested on: LOX IMVI
[8] = tested on: HT-29
[9] = tested on: EKVX
[10] = tested on: SF-539
[11] = tested on: SK-OV-3
[12] = tested on: NCI-H460
[13] = tested on: OVCAR-8
[14] = tested on: DU-145
[15] = tested on: SF-295
[16] = tested on: OVCAR-5
[17] = tested on: T47D
[18] = tested on: UACC-257
[19] = tested on: PC-3
[20] = tested on: A498
[21] = tested on: MOLT-4
[22] = tested on: SF-268
[23] = tested on: SNB-19
[24] = tested on: 786-0
[25] = tested on: OVCAR-3
[26] = tested on: CAKI-1
[27] = tested on: SK-MEL-28
[28] = tested on: NCI-H23
[29] = tested on: Malme-3M
[30] = tested on: HL-60
[31] = tested on: MDA-MB-435
[32] = tested on: HCT-116
[33] = tested on: OVCAR-4
[34] = tested on: HCT-15
[35] = tested on: ACHN
[36] = tested on: KM12
[37] = tested on: UACC-62
[38] = tested on: CCRF-CEM
[39] = tested on: K562
[40] = tested on: NCI-H522
[41] = tested on: NCI/ADR-RES
[42] = tested on: IGROV-1
[43] = tested on: NCI-H226
[44] = tested on: RXF 393
[45] = tested on: UO-31
[46] = tested on: U-251
[47] = tested on: SK-MEL-5
[48] = tested on: SW-620
[49] = tested on: SR
[50] = tested on: SN12C
[51] = tested on: HOP-92
[52] = tested on: BT-549
[53] = tested on: MDA-MB-231
[54] = tested on: SK-MEL-2
[55] = tested on: MDA-N
[56] = tested on: A549
[57] = tested on: COLO 205
[58] = tested on: SNB-75

Measured: GI50

Cc1ccc2c3c1O[C@H]1c4[nH]c5ccccc5c4C[C@@]4(O)[C@@H](C2)N(CC2CC2)CC[C@]314
active: [33] 0.166 µM
inactive: [1] 16.4 µM | [2] 3.78 µM | [3] 17.3 µM | [4] 16.8 µM | [5] 19.2 µM | [6] 11.2 µM | [7] 15.9 µM | [8] 4.42 µM | [9] 17.4 µM | [10] 16.5 µM | [11] 16.4 µM | [12] 15.2 µM | [13] 15.3 µM | [14] 16.1 µM | [15] 17.4 µM | [16] 18.7 µM | [17] 17.6 µM | [18] 16.7 µM | [19] 12.1 µM | [20] 17.1 µM | [21] 12.2 µM | [22] 13.6 µM | [23] 16.7 µM | [24] 13.8 µM | [25] 14.4 µM | [26] 16.6 µM | [27] 12.6 µM | [28] 19.7 µM | [29] 14.5 µM | [30] 5.3 µM | [31] 13.7 µM | [32] 14.5 µM | [35] 16.6 µM | [36] 17 µM | [37] 16 µM | [38] 2.78 µM | [39] 15.5 µM | [40] 15 µM | [41] 19.1 µM | [42] 17.4 µM | [43] 14.9 µM | [44] 7.38 µM | [45] 13.4 µM | [46] 14.4 µM | [47] 14.1 µM | [48] 10.9 µM | [49] 8.89 µM | [50] 15.3 µM | [51] 13 µM | [52] 18.3 µM | [53] 19.4 µM | [54] 17.1 µM | [55] 16.2 µM | [56] 14.7 µM | [57] 14.3 µM
12.7 µM: [34]

Cc1ccc(S(=NS(=O)(=O)c2ccc(C)cc2)c2ccc(C)cc2)cc1
57 µM: [34]
inactive: [1] 68.2 µM | [3] > 100 µM | [4] > 100 µM | [5] > 100 µM | [6] > 100 µM | [8] > 100 µM | [9] 86.5 µM | [10] > 100 µM | [12] > 100 µM | [13] 71.6 µM | [14] > 100 µM | [15] 75.7 µM | [16] > 100 µM | [17] 56 µM | [18] > 100 µM | [19] 64 µM | [21] > 10 µM | [22] 76.2 µM | [23] > 100 µM | [24] > 100 µM | [25] 76 µM | [27] > 100 µM | [28] 51.6 µM | [29] > 100 µM | [30] 34.7 µM | [31] 60.3 µM | [32] 56.9 µM | [35] > 100 µM | [36] 48.5 µM | [38] 57 µM | [39] 36.1 µM | [41] 38.7 µM | [43] > 100 µM | [44] 81.8 µM | [45] 63.7 µM | [46] 57.5 µM | [48] > 100 µM | [49] 36.9 µM | [50] > 100 µM | [51] > 100 µM | [52] > 100 µM | [55] 77.1 µM | [56] 62.5 µM | [57] 54.7 µM

S=c1[nH]n2c(CCCCCCCCc3nnc4sc(=S)[nH]n34)nnc2s1
> 100 µM: [34]
inactive: [1] > 100 µM | [2] > 100 µM | [4] > 100 µM | [5] > 100 µM | [6] > 100 µM | [8] > 100 µM | [9] > 100 µM | [10] > 100 µM | [11] > 100 µM | [12] > 100 µM | [13] > 100 µM | [58] > 100 µM | [14] > 100 µM | [15] > 100 µM | [16] > 100 µM | [17] > 100 µM | [18] > 100 µM | [19] > 100 µM | [20] > 100 µM | [21] > 100 µM | [22] > 100 µM | [23] > 100 µM | [24] > 100 µM | [25] > 100 µM | [26] > 100 µM | [27] > 100 µM | [28] > 100 µM | [29] > 100 µM | [30] > 100 µM | [31] > 100 µM | [32] > 100 µM | [33] > 100 µM | [35] > 100 µM | [36] > 100 µM | [37] > 100 µM | [38] 83 µM | [39] > 100 µM | [40] > 100 µM | [41] > 100 µM | [42] > 100 µM | [43] > 100 µM | [45] > 100 µM | [46] > 100 µM | [48] > 100 µM | [49] > 100 µM | [50] > 100 µM | [51] > 100 µM | [52] > 100 µM | [53] > 100 µM | [54] > 100 µM | [55] > 100 µM | [56] > 100 µM | [57] > 100 µM

COc1ccc(/C=c2/sc3n(c2=O)C(c2ccccc2)C2(O)CCCCC2N=3)cc1 (stereo not given)
inactive: [1] > 12.5 µM | [2] > 12.5 µM | [3] > 12.5 µM | [4] > 12.5 µM | [5] > 12.5 µM | [6] > 12.5 µM | [7] > 12.5 µM | [8] > 12.5 µM | [12] > 12.5 µM | [13] > 12.5 µM | [58] > 12.5 µM | [16] > 12.5 µM | [17] > 12.5 µM | [18] > 12.5 µM | [19] > 12.5 µM | [21] > 12.5 µM | [22] > 12.5 µM | [23] > 12.5 µM | [24] > 12.5 µM | [25] > 12.5 µM | [26] > 12.5 µM | [27] > 12.5 µM | [28] > 12.5 µM | [29] > 12.5 µM | [30] > 12.5 µM | [31] > 12.5 µM | [32] > 12.5 µM | [33] > 12.5 µM | [35] > 12.5 µM | [37] > 12.5 µM | [38] > 12.5 µM | [39] > 12.5 µM | [40] > 12.5 µM | [42] > 12.5 µM | [43] > 12.5 µM | [45] > 12.5 µM | [46] > 12.5 µM | [47] > 12.5 µM | [48] > 12.5 µM | [49] > 12.5 µM | [52] > 12.5 µM | [54] > 12.5 µM | [55] > 12.5 µM | [56] > 12.5 µM
